Experimental data as given in PMC8547495 (Journal of medicinal chemistry, 2021).
Entries after “also recorded” stand apart in the source; their conditions may differ.

Key:
[1] = biological target: T1, SARS-CoV-2 PLpro (Severe acute respiratory syndrome coronavirus 2, UniProt P0DTD1); experiment: biochemical; assay type: binding
[2] = system: SARS-CoV-2; settings: at 33 μM, the maximum soluble dose; cited from earlier work
[3] = biological target: T1, SARS-CoV-2 PLpro; assay type: biochemical; settings: for PLpro inhibition potency in words: compared with GRL0617 / parent
[4] = in vivo; settings: male, C57BL/6, mouse, ip, 50 mg/kg
[5] = system: A549 cells; settings: for cytotoxicity compared with 1: at 100 μM; for concentration below which cytotoxicity was not observed: under the antiviral assay conditions, A549-hACE2
[6] = system: SARS-CoV-2 USA/WA1/2020; assay type: cell-based; settings: 20 μM, remdesivir 10 μM / 20 μM
[7] = microsomes, 2 μM

Q: Which results are given for `Cc1ccc(NC2CNC2)cc1C(=O)N[C@H](C)c1cccc2ccccc12` [ZN-2-184]?
A: improvement in affinity relative to GRL0617 ([1]; SPR): two-fold improvement in affinity; gain in binding stabilization from SPR affinity ([1]; relative to GRL0617, engaging Site I or BL2 groove alone): 0.57 kcal/mol

Q: Which “antiviral activity compared to remdesivir” value [2] does the source give for `COc1cc(CNC(=O)C2CCN(C(C)c3cccc4ccccc34)CC2)ccn1` (racemic) [rac5c] here?
A: 60%

Q: With `Cc1ccc(N)cc1C(=O)N[C@H](CCO)c1cccc2ccccc12` [DY2-97] as the compound, how does the “PLpro inhibition potency in words” value [3] read?
A: almost completely inactive

Q: Which Cmax [4] does the source give for `Cc1ccc(NC2CNC2)cc1C(=O)N[C@H](C)c1cccc(-c2ccc(CNC3CCCC3)s2)c1` [XR8-23] here?
A: 12 to 13 µM

Q: What about the “cytotoxicity compared with 1” value [5] of the same compound?
A: more cytotoxic than 1

Q: What about the “concentration below which cytotoxicity was not observed” value [5] of the same compound?
A: < 10 µM

Q: With `CNC(=O)C[C@@H](NC(=O)c1cc(N(C)C2CNC2)ccc1C)c1cccc2ccccc12` [DY2-116] as the compound, how does the Kd [1] read?
A: > 1000 µM

Q: What about the “PLpro inhibition potency in words” value [3] of the same compound?
A: almost completely inactive

Q: What about the IC50 ([3]; read-out: Enzyme inhibition IC50, SARS-CoV-2 PLpro, Z-RLRGG-AMC substrate) of the same compound?
A: > 100 µM

Q: Which Cmax [4] does the source give for `Cc1ccc(NC2CNC2)cc1C(=O)N[C@H](C)c1cccc(-c2ccc(CN3CCCC3)s2)c1` [XR8-24] here?
A: 12 to 13 µM

Q: And the “effect of treatment on viral RNA versus remdesivir” value [6]?
A: not significantly different from that of remdesivir; also recorded: not significantly different from the FDA-approved RdRp inhibitor remdesivir

Q: And the “cytotoxicity compared with 1” value [5]?
A: more cytotoxic than 1

Q: What about the “concentration below which cytotoxicity was not observed” value [5] of the same compound?
A: < 50 µM

Q: For `CC[C@@H](NC(=O)c1cc(N(C)C2CNC2)ccc1C)c1cccc2ccccc12` [ZN-3-61], which “PLpro inhibition potency in words” value [3] is on record?
A: significant decrease in potency

Q: Which “human liver microsome stability in words” value [7] does the source give for `Cc1ccc(NC2CNC2)cc1C(=O)N[C@H](C)c1cccc(-c2cccs2)c1` [ZN-3-80] here?
A: more stable than GRL0617
